Series [1] has as its target T1, human Glucagon-R (Homo sapiens, UniProt P47871).
T1 construct: expressed in transfected cells
Kind of series: Glucagon receptor assay (cAMP induction, AlphaScreen). In kind it is cell-based. Particulars: HEK293 cells expressing the human Glucagon-R, 15 min at 37° C., read-out: GCG-R EC50 in vitro. The method, then:
The 5′-end primers additionally encoded a near-Kozak consensus sequence to ensure efficient translation. […] 48 hr after transfection, cells were seeded for limited dilution cloning and selected with 1 mg/ml G418 in the culture medium.
On the day of analysis, growth medium was removed and the cells were washed once with […] of the included Assay buffer with IBMX. Cells were incubated in […] Assay buffer/IBMX containing increasing concentrations of test peptides for 15 min at 37° C. Then the peptides/Assay buffer was removed and cells were lysed by addition of […] Lysis buffer pr. well and incubation for at least 10 min at room temperature. From each well […] cell lysate was transferred to a 384-well OptiPlate and mixed with Donor and Acceptor beads and incubated for 1 h at room temperature. The cAMP content was measured on an Envision plate reader.
In general terms: In Alpha technology, singlet oxygen from a donor bead excites a nearby acceptor bead.

The nature of series [2]: physchem. Particulars: pH 7.5. On the procedure:
A stock solution of the test peptide (2 mg/ml; determined by measurement of the absorption of the solution at 280 nm, and using the theoretical extension coefficient based on the content of tryptophan and tyrosine in the peptide) in demineralized water adjusted to pH 2.5 with HCl was prepared, and aliquots were diluted 1:1 in 100 mM acetate buffer (pH 4.0) and 100 mM phosphate buffer (pH 7.5), respectively, and loaded in a standard flat-bottom, non-sterile 96-well UV Microplate. The absorbance of samples (single samples, n=1) at 280 and 325 nm was measured in an absorbance-based plate reader, which was preheated to ambient temperature.

Square brackets hold non-standard residues; d marks the D form. Peptide text beside a SMILES is read from it. Dab = NCC[C@H](N)C(=O)O; Aib = CC(C)(N)C(=O)O

T1 sequence (P47871 26-477): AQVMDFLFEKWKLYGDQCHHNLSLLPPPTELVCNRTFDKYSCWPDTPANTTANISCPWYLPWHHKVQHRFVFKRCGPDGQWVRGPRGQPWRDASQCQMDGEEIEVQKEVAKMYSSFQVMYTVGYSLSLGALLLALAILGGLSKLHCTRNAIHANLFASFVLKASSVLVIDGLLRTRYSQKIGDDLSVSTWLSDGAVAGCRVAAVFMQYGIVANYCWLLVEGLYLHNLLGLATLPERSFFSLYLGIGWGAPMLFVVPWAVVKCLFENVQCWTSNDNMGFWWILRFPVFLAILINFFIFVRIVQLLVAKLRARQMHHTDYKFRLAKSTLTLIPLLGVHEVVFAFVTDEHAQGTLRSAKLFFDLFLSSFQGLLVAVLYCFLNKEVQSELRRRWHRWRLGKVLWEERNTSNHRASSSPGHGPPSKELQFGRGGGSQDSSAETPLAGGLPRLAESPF

What is called EC50 is the concentration at which the effect is half-maximal. The solubility is the dissolved amount per volume that the medium holds. Consider “H-HSQGTFTSDYSKYLDSARAEDFVSWLEST-OH [Compound 10]”, for which the EC50 in series [1] turned out to be 0.32 nM. Moreover, the solubility in series [2] is not below 1000 µg/mL.
In the same order, the values of “H-HSQGTFTSDYSKYLDVARAESFVKWLEST-OH [Compound 19]” are 0.054 nM and not below 1000 µg/mL.
As to “H-HSQGTFTSDYSKYLDSARAEEFVKWLEST-OH [Compound 9]”, the EC50 in series [1] turned out to be 0.03 nM. Besides, the solubility in series [2] is not below 1000 µg/mL.
Taken in the same sequence, the figures for `CC(C)C[C@H](NC(=O)[C@H](Cc1c[nH]c2ccccc12)NC(=O)[C@H](CCCCN)NC(=O)[C@@H](NC(=O)[C@H](Cc1ccccc1)NC(=O)[C@H](CO)NC(=O)[C@H](CCC(=O)O)NC(=O)[C@H](C)NC(=O)[C@H](CCCNC(=N)N)NC(=O)[C@H](C)NC(=O)C(C)(C)NC(=O)[C@H](CC(=O)O)NC(=O)[C@H](CC(C)C)NC(=O)[C@H](Cc1ccc(O)cc1)NC(=O)[C@H](CCCCN)NC(=O)[C@H](CO)NC(=O)[C@H](Cc1ccc(O)cc1)NC(=O)[C@H](CC(=O)O)NC(=O)[C@H](CO)NC(=O)[C@@H](NC(=O)[C@H](Cc1ccccc1)NC(=O)[C@@H](NC(=O)CNC(=O)[C@H](CCC(N)=O)NC(=O)[C@H](C)NC(=O)[C@@H](N)Cc1c[nH]cn1)[C@@H](C)O)[C@@H](C)O)C(C)C)C(=O)N[C@@H](CCC(=O)O)C(=O)N[C@@H](CO)C(=O)N[C@H](C(=O)O)[C@@H](C)O` [Compound 20] (H-HAQGTFTSDYSKYLD[Aib]ARAESFVKWLEST-OH) were 0.24 nM and not below 1000 µg/mL.
Take “H-HSQGTFTSDYSKYLDKRRAEDFVSWLEST-OH [Compound 18]”: the EC50 in series [1] came out at 0.026 nM. In series [2], the solubility is not below 1000 µg/mL.
For the compound “H-HSQGTFTSDYSKYLDEARAKSFVEWLEKT-OH [Compound 27]”, the EC50 in series [1] came to 0.063 nM. This compound also showed a solubility in series [2] not below 1000 µg/mL.
In the same order, the values of `CC(=O)NCC[C@H](NC(=O)[C@H](CO)NC(=O)[C@@H](N)Cc1c[nH]cn1)C(=O)NCC(=O)N[C@H](C(=O)N[C@@H](Cc1ccccc1)C(=O)N[C@H](C(=O)N[C@@H](CO)C(=O)N[C@@H](CC(=O)O)C(=O)N[C@@H](Cc1ccc(O)cc1)C(=O)N[C@@H](CO)C(=O)N[C@@H](CCCCN)C(=O)N[C@@H](Cc1ccc(O)cc1)C(=O)N[C@@H](CC(C)C)C(=O)N[C@@H](CC(=O)O)C(=O)NC(C)(C)C(=O)N[C@@H](C)C(=O)N[C@@H](CCCNC(=N)N)C(=O)N[C@@H](C)C(=O)N[C@@H](CCC(=O)O)C(=O)N[C@@H](CCC(=O)O)C(=O)N[C@@H](Cc1ccccc1)C(=O)N[C@H](C(=O)N[C@@H](CCCCN)C(=O)N[C@@H](Cc1c[nH]c2ccccc12)C(=O)N[C@@H](CC(C)C)C(=O)N[C@@H](CCC(=O)O)C(=O)N[C@@H](CO)C(=O)N[C@H](C(N)=O)[C@@H](C)O)C(C)C)[C@@H](C)O)[C@@H](C)O` [Compound 40] (H-HS[Dab](Ac)GTFTSDYSKYLD[Aib]ARAEEFVKWLEST-NH2) are 0.0035 nM and not below 1000 µg/mL.
Taken in the same sequence, the figures for `CC(C)C[C@H](NC(=O)[C@H](Cc1c[nH]c2ccccc12)NC(=O)[C@H](CCCCN)NC(=O)[C@@H](NC(=O)[C@H](Cc1ccccc1)NC(=O)[C@H](CO)NC(=O)[C@H](CCC(=O)O)NC(=O)[C@H](C)NC(=O)[C@H](CCCNC(=N)N)NC(=O)[C@H](C)NC(=O)C(C)(C)NC(=O)[C@H](CC(=O)O)NC(=O)[C@H](CC(C)C)NC(=O)[C@H](Cc1ccc(O)cc1)NC(=O)[C@H](CCCCN)NC(=O)[C@H](CO)NC(=O)[C@@H](NC(=O)[C@H](CC(=O)O)NC(=O)[C@H](CO)NC(=O)[C@@H](NC(=O)[C@H](Cc1ccccc1)NC(=O)[C@@H](NC(=O)CNC(=O)[C@H](CCC(N)=O)NC(=O)[C@H](CO)NC(=O)[C@@H](N)Cc1c[nH]cn1)[C@@H](C)O)[C@@H](C)O)C(C)C)C(C)C)C(=O)N[C@@H](CCC(=O)O)C(=O)N[C@@H](CO)C(=O)N[C@H](C(=O)O)[C@@H](C)O` [Compound 23] (H-HSQGTFTSDVSKYLD[Aib]ARAESFVKWLEST-OH) were 0.16 nM and not below 1000 µg/mL.
In the same order, the values of “H-HSQGTFTSDYSKYLDSARAESFVKWLEST-OH [Compound 1]” are 0.064 nM and not below 1000 µg/mL.
As for “H-HSQGTFTSDYSKYLESARAEDFVKWLEST-OH [Compound 8]”, in series [1], the EC50 is 0.38 nM. This compound gave a solubility in series [2] not below 1000 µg/mL.
In the same order, the values of `CC(=O)NCC[C@H](NC(=O)[C@H](CO)NC(=O)[C@@H](N)Cc1c[nH]cn1)C(=O)NCC(=O)N[C@H](C(=O)N[C@@H](Cc1ccccc1)C(=O)N[C@H](C(=O)N[C@@H](CO)C(=O)N[C@@H](CC(=O)O)C(=O)N[C@@H](Cc1ccc(O)cc1)C(=O)N[C@@H](CO)C(=O)N[C@@H](CCCCN)C(=O)N[C@@H](Cc1ccc(O)cc1)C(=O)N[C@@H](CC(C)C)C(=O)N[C@@H](CC(=O)O)C(=O)NC(C)(C)C(=O)N[C@@H](C)C(=O)N[C@@H](CCCNC(=N)N)C(=O)N[C@@H](C)C(=O)N[C@@H](CCC(=O)O)C(=O)N[C@@H](CCC(=O)O)C(=O)N[C@@H](Cc1ccccc1)C(=O)N[C@H](C(=O)N[C@@H](CCCCN)C(=O)N[C@@H](Cc1c[nH]c2ccccc12)C(=O)N[C@@H](CC(C)C)C(=O)N[C@@H](CCC(=O)O)C(=O)N[C@@H](CO)C(=O)N[C@H](C(=O)O)[C@@H](C)O)C(C)C)[C@@H](C)O)[C@@H](C)O` [Compound 39] (H-HS[Dab](Ac)GTFTSDYSKYLD[Aib]ARAEEFVKWLEST-OH) are 0.0044 nM and not below 1000 µg/mL.
For `CC(C)C[C@H](NC(=O)[C@H](Cc1c[nH]c2ccccc12)NC(=O)[C@H](C)NC(=O)[C@@H](NC(=O)[C@H](Cc1ccccc1)NC(=O)[C@H](CCC(=O)O)NC(=O)[C@H](CCC(=O)O)NC(=O)[C@H](C)NC(=O)[C@H](CCCNC(=N)N)NC(=O)[C@H](C)NC(=O)C(C)(C)NC(=O)[C@H](CC(=O)O)NC(=O)[C@H](CC(C)C)NC(=O)[C@H](Cc1ccc(O)cc1)NC(=O)[C@H](CCCCN)NC(=O)[C@H](CO)NC(=O)[C@H](Cc1ccc(O)cc1)NC(=O)[C@H](CC(=O)O)NC(=O)[C@H](CO)NC(=O)[C@@H](NC(=O)[C@H](Cc1ccccc1)NC(=O)[C@@H](NC(=O)CNC(=O)[C@H](CCC(N)=O)NC(=O)[C@H](CO)NC(=O)[C@@H](N)Cc1c[nH]cn1)[C@@H](C)O)[C@@H](C)O)C(C)C)C(=O)N[C@@H](CCC(=O)O)C(=O)N[C@@H](CO)C(=O)N[C@H](C(=O)O)[C@@H](C)O` [Compound 35] (H-HSQGTFTSDYSKYLD[Aib]ARAEEFVAWLEST-OH), the concentration giving a half-maximal response (EC50) in series [1] is 0.014 nM. Besides, the solubility in series [2] was not below 1000 µg/mL.
Taken in the same sequence, the figures for `CC(C)C[C@H](NC(=O)[C@H](Cc1c[nH]c2ccccc12)NC(=O)[C@H](CCCCN)NC(=O)[C@@H](NC(=O)[C@H](Cc1ccccc1)NC(=O)[C@H](CCC(=O)O)NC(=O)[C@H](CCC(=O)O)NC(=O)[C@H](C)NC(=O)[C@H](CCCNC(=N)N)NC(=O)[C@H](C)NC(=O)C(C)(C)NC(=O)[C@H](CC(=O)O)NC(=O)[C@H](CC(C)C)NC(=O)[C@H](Cc1ccc(O)cc1)NC(=O)[C@H](CCCCN)NC(=O)[C@H](CO)NC(=O)[C@H](Cc1ccc(O)cc1)NC(=O)[C@H](CC(=O)O)NC(=O)[C@H](CO)NC(=O)[C@@H](NC(=O)[C@H](Cc1ccccc1)NC(=O)[C@@H](NC(=O)CNC(=O)[C@H](Cc1c[nH]cn1)NC(=O)[C@H](CO)NC(=O)[C@@H](N)Cc1c[nH]cn1)[C@@H](C)O)[C@@H](C)O)C(C)C)C(=O)N[C@@H](CCC(=O)O)C(=O)N[C@@H](CO)C(=O)N[C@H](C(N)=O)[C@@H](C)O` [Compound 38] (H-HSHGTFTSDYSKYLD[Aib]ARAEEFVKWLEST-NH2) were 0.0047 nM and not below 1000 µg/mL.

(Values after patent US11795204B2 (Zealand Pharma A/S, priority 2012, dated 2023).)
